Where “and” joins values, the source holds several entries; their conditions need not be identical. Identical values can stand only once. Inconclusive results and toxic doses are left out.
Test system: BDF1 mice, P1081 chloroleukemia ip, survival T/C
Assay: NCI In Vivo Anticancer Drug Screen. Data for tumor model P1081 Chloroleukemia (intraperitoneal) in B6D2F1 (BDF1) mice
Details: endpoint: mean survival time, higher = longer survival
Experimental: The antitumor activity of compounds was measured in mice bearing transplantable tumors. Survival or tumor size were measured and the results are expressed as the measurement made in the treated group (T) divided by the measurement made in the vehicle treated control group (C). The tumor model used in this assay is P1081 Chloroleukemia (intraperitoneal) in B6D2F1 (BDF1) mice

[1] = dose: 6.0 mg/kg/injection, schedule: Q01DX010 (ip), vehicle: saline
[2] = dose: 12.0 mg/kg/injection, schedule: Q01DX010 (ip), vehicle: saline
[3] = dose: 1.6 mg/kg/injection, schedule: Q01DX Z (ip), vehicle: carboxymethylcellulose (CMC)
[4] = dose: 12.5 mg/kg/injection, schedule: Q01DX Z (ip), vehicle: carboxymethylcellulose (CMC)
[5] = dose: 25.0 mg/kg/injection, schedule: Q01DX Z (ip), vehicle: carboxymethylcellulose (CMC)
[6] = dose: 6.25 mg/kg/injection, schedule: Q01DX Z (ip), vehicle: carboxymethylcellulose (CMC)
[7] = dose: 125.0 mg/kg/injection, schedule: Q01DX Z (sc), vehicle: steriod suspending solution
[8] = dose: 25.0 mg/kg/injection, schedule: Q01DX010 (ip), vehicle: saline
[9] = dose: 50.0 mg/kg/injection, schedule: Q01DX010 (ip), vehicle: saline
[10] = dose: 50.0 mg/kg/injection, schedule: Q01DX Z (ip), vehicle: carboxymethylcellulose (CMC)
[11] = dose: 0.5 mg/kg/injection, schedule: Q01DX Z (ip), vehicle: saline
[12] = dose: 1.0 mg/kg/injection, schedule: Q01DX Z (ip), vehicle: saline

O=C(Nc1ccc(C2=NCCN2)cc1)c1ccc(C(=O)Nc2ccc(C3=NCCN3)cc2)c([N+](=O)[O-])c1 was tested, and the T/C [1] was 260 % of control and 288 % of control, the T/C (dose: 8.0 mg/kg/injection, schedule: Q01DX010 (ip), vehicle: saline) was 285 % of control and 311 % of control and the T/C [2] was 166 % of control and 250 % of control. For the same molecule, the T/C (dose: 18.0 mg/kg/injection, schedule: Q01DX010 (ip), vehicle: saline) was 120 % of control and 122 % of control.
For C[n+]1c2ccccc2nc2c(N)cc(N)cc21, the T/C [3] was 100 % of control, the T/C [4] was 110 % of control and the T/C [5] was 101 % of control.
With Nc1ncnc2[nH]ncc12 the T/C (dose: 0.78 mg/kg/injection, schedule: Q01DX Z (ip), vehicle: carboxymethylcellulose (CMC)) was 94 % of control, the T/C (dose: 1.5 mg/kg/injection, schedule: Q01DX010 (ip), vehicle: saline) was 111 % of control and the T/C (dose: 1.56 mg/kg/injection, schedule: Q01DX Z (ip), vehicle: carboxymethylcellulose (CMC)) was 103 % of control. The T/C (dose: 3.0 mg/kg/injection, schedule: Q01DX010 (ip), vehicle: saline) was 116 % of control and 100 % of control, the T/C (dose: 3.12 mg/kg/injection, schedule: Q01DX Z (ip), vehicle: carboxymethylcellulose (CMC)) was 112 % of control and the T/C [1] was 111 % of control and 105 % of control. The T/C [6] was 94 % of control and the T/C [2] was 88 % of control and 105 % of control.
C[C@]12CCC(=O)C=C1CC[C@@H]1[C@@H]2CC[C@@]2(C)[C@H]1CC[C@]2(C)O was tested, and the T/C (dose: 62.5 mg/kg/injection, schedule: Q01DX Z (sc), vehicle: steriod suspending solution) was 101 % of control, the T/C [7] was 101 % of control and the T/C (dose: 250.0 mg/kg/injection, schedule: Q01DX Z (sc), vehicle: steriod suspending solution) was 106 % of control and 108 % of control. For the same molecule, the T/C (dose: 500.0 mg/kg/injection, schedule: Q01DX Z (sc), vehicle: steriod suspending solution) was 91 % of control and 101 % of control and the T/C (dose: 1000.0 mg/kg/injection, schedule: Q01DX Z (sc), vehicle: steriod suspending solution) was 100 % of control.
In the case of CO[C@@H]1[C@@H](OC2OC(C)C(OC3CC(C)(O)C(OC(=O)CC(C)C)C(C)O3)C(N(C)C)C2O)[C@@H](CC=O)C[C@@H](C)C(=O)/C=C/C2O[C@H]2C[C@@H](C)OC(=O)C[C@H]1OC(C)=O (stereo partly drawn), the T/C (dose: 37.5 mg/kg/injection, schedule: Q01DX010 (ip), vehicle: saline) is reported as 111 % of control and 120 % of control, the T/C (dose: 150.0 mg/kg/injection, schedule: Q01DX010 (ip), vehicle: saline) is reported as 111 % of control and 115 % of control and the T/C (dose: 300.0 mg/kg/injection, schedule: Q01DX010 (ip), vehicle: saline) is reported as 122 % of control.
O=C(Nc1ccc(C2=NCCN2)cc1)c1ccc(C(=O)Nc2ccc(C3=NCCN3)cc2)c(Cl)c1 was tested, and the T/C (dose: 1.8 mg/kg/injection, schedule: Q01DX Z (ip), vehicle: water) was 97 % of control, the T/C (dose: 7.5 mg/kg/injection, schedule: Q01DX Z (ip), vehicle: water) was 97 % of control and the T/C (dose: 60.0 mg/kg/injection, schedule: Q01DX Z (ip), vehicle: water) was 86 % of control.
In the case of CS(=O)(=O)OCC(O)C(O)C(O)C(O)COS(C)(=O)=O (stereo not drawn), the T/C [8] is reported as 110 % of control, the T/C [9] is reported as 110 % of control and 100 % of control and the T/C (dose: 100.0 mg/kg/injection, schedule: Q01DX010 (ip), vehicle: saline) is reported as 110 % of control and 105 % of control. The T/C (dose: 200.0 mg/kg/injection, schedule: Q01DX010 (ip), vehicle: saline) was 111 % of control and 120 % of control and the T/C (dose: 400.0 mg/kg/injection, schedule: Q01DX010 (ip), vehicle: saline) was 111 % of control.
CCN(CC)c1ccc2cc3ccc(=[N+](CC)CC)cc-3oc2c1 was tested, and the T/C (dose: 0.31 mg/kg/injection, schedule: Q01DX Z (ip), vehicle: carboxymethylcellulose (CMC)) was 101 % of control, the T/C (dose: 0.63 mg/kg/injection, schedule: Q01DX Z (ip), vehicle: carboxymethylcellulose (CMC)) was 98 % of control and the T/C (dose: 1.25 mg/kg/injection, schedule: Q01DX Z (ip), vehicle: carboxymethylcellulose (CMC)) was 108 % of control. The T/C (dose: 2.5 mg/kg/injection, schedule: Q01DX Z (ip), vehicle: carboxymethylcellulose (CMC)) was 105 % of control and 114 % of control and the T/C (dose: 5.0 mg/kg/injection, schedule: Q01DX Z (ip), vehicle: carboxymethylcellulose (CMC)) was 96 % of control.
For O=C(O)CCCc1ccc(N(CCCl)CCCl)cc1, the T/C (dose: 0.8 mg/kg/injection, schedule: Q01DX Z (ip), vehicle: carboxymethylcellulose (CMC)) was 90 % of control, the T/C [3] was 92 % of control and the T/C (dose: 3.1 mg/kg/injection, schedule: Q01DX Z (ip), vehicle: carboxymethylcellulose (CMC)) was 102 % of control. For the same molecule, the T/C (dose: 3.13 mg/kg/injection, schedule: Q01DX010 (ip), vehicle: saline) was 105 % of control and 120 % of control, the T/C (dose: 6.2 mg/kg/injection, schedule: Q01DX Z (ip), vehicle: carboxymethylcellulose (CMC)) was 113 % of control and the T/C (dose: 6.25 mg/kg/injection, schedule: Q01DX010 (ip), vehicle: saline) was 105 % of control and 115 % of control. The T/C [6] was 86 % of control, the T/C [4] was 107 % of control and the T/C [5] was 114 % of control. For the same molecule, the T/C [10] was 102 % of control.
With CSCS(=O)C[C@H](CO)NC(=O)/C=C/c1c(C)[nH]c(=O)[nH]c1=O (stereo partly drawn) the T/C (dose: 0.06 mg/kg/injection, schedule: Q01DX Z (ip), vehicle: saline) was 92 % of control, the T/C (dose: 0.12 mg/kg/injection, schedule: Q01DX Z (ip), vehicle: saline) was 93 % of control and the T/C (dose: 0.25 mg/kg/injection, schedule: Q01DX Z (ip), vehicle: saline) was 107 % of control and 97 % of control. The T/C [11] was 92 % of control and 102 % of control and the T/C [12] was 90 % of control.
In the case of C[C@]12CC[C@H](OC3OC(CO)C(O)C(O)C3O)C[C@H]1CC[C@@H]1[C@@H]2CC[C@]2(C)[C@@H](C3=CCOC3=O)CC[C@]12O (stereo partly drawn), the T/C [11] is reported as 94 % of control, the T/C [12] is reported as 96 % of control and the T/C (dose: 31.0 micrograms/kg/injection, schedule: Q01DX Z (ip), vehicle: saline) is reported as 101 % of control. For the same molecule, the T/C (dose: 63.0 micrograms/kg/injection, schedule: Q01DX Z (ip), vehicle: saline) was 98 % of control, the T/C (dose: 125.0 micrograms/kg/injection, schedule: Q01DX Z (ip), vehicle: saline) was 104 % of control and the T/C (dose: 250.0 micrograms/kg/injection, schedule: Q01DX Z (ip), vehicle: saline) was 104 % of control. For the same molecule, the T/C (dose: 500.0 micrograms/kg/injection, schedule: Q01DX Z (ip), vehicle: saline) was 110 % of control.
In the case of Nc1nc(F)nc2c1ncn2C1OC(CO)C(O)C1O (stereo not drawn), the T/C (dose: 0.25 mg/kg/injection, schedule: Q01DX010 (ip), vehicle: saline) is reported as 100 % of control, the T/C (dose: 0.5 mg/kg/injection, schedule: Q01DX010 (ip), vehicle: saline) is reported as 94 % of control and the T/C (dose: 1.0 mg/kg/injection, schedule: Q01DX010 (ip), vehicle: saline) is reported as 110 % of control and 100 % of control. The T/C (dose: 2.0 mg/kg/injection, schedule: Q01DX010 (ip), vehicle: saline) was 111 % of control and 105 % of control and the T/C (dose: 4.0 mg/kg/injection, schedule: Q01DX010 (ip), vehicle: saline) was 95 % of control.
CC/C(=C(/CC)c1ccc(O)cc1)c1ccc(O)cc1 was tested, and the T/C (dose: 12.5 mg/kg/injection, schedule: Q01DX010 (ip), vehicle: saline) was 100 % of control, the T/C (dose: 16.0 mg/kg/injection, schedule: Q01DX Z (sc), vehicle: steriod suspending solution) was 95 % of control and the T/C [8] was 100 % of control and 105 % of control. The T/C [9] was 100 % of control and 105 % of control and the T/C [7] was 88 % of control.
In the case of CN(N=O)C(=O)NC(C=O)C(O)C(O)C(O)CO (stereo not drawn), the T/C [6] is reported as 93 % of control, the T/C [4] is reported as 102 % of control and the T/C [5] is reported as 112 % of control. The T/C [10] was 100 % of control, the T/C (dose: 50.0 mg/kg/injection, schedule: Q01DX Z (ip), vehicle: saline) was 115 % of control and the T/C (dose: 100.0 mg/kg/injection, schedule: Q01DX Z (ip), vehicle: saline) was 107 % of control. For the same molecule, the T/C (dose: 200.0 mg/kg/injection, schedule: Q01DX Z (ip), vehicle: saline) was 88 % of control.
For Nc1nc(=S)c2[nH]cnc2[nH]1, the T/C (dose: 0.25 mg/kg/injection, schedule: Q01DX Z (ip), vehicle: carboxymethylcellulose (CMC)) was 169 % of control, the T/C (dose: 1.0 mg/kg/injection, schedule: Q01DX Z (ip), vehicle: carboxymethylcellulose (CMC)) was 91 % of control and the T/C (dose: 1.25 mg/kg/injection, schedule: Q01DX010 (ip), vehicle: other) was 150 % of control. The T/C (dose: 2.5 mg/kg/injection, schedule: Q01DX010 (ip), vehicle: other) was 110 % of control and 113 % of control, the T/C (dose: 5.0 mg/kg/injection, schedule: Q01DX010 (ip), vehicle: other) was 110 % of control and the T/C (dose: 31.2 micrograms/kg/injection, schedule: Q01DX Z (ip), vehicle: carboxymethylcellulose (CMC)) was 100 % of control. The T/C (dose: 62.5 micrograms/kg/injection, schedule: Q01DX Z (ip), vehicle: carboxymethylcellulose (CMC)) was 103 % of control and the T/C (dose: 250.0 micrograms/kg/injection, schedule: Q01DX Z (ip), vehicle: carboxymethylcellulose (CMC)) was 155 % of control.

From PubChem BioAssay AID246 (DTP/NCI, 2004)
